Measurements: patent US9586986B2, “Substituted 7-deazapurine ribonucleosides for therapeutic uses” (Institute of Organic Chemistry and Biochemistry ASCR, v.v.i., priority 2014, dated 2017)
pEC50, pIC50: −log10 of the molar value. Read-outs that look alike come from different tables or passages of the source.

Experiments:
Format in all cases: cell-based
[1] = tested on: HCV subtype 1B replicon in Huh-7 cells; test: HCV sub-genomic reporter replicon assay, subtype 1B; conditions: Hepatitis C virus
Protocol: (§1) Compounds were also tested in Huh-7 cells harboring sub-genomic reporter replicons derived from HCV subtypes 1B and 2A (ref.: Stuyver, L. J.; Whitaker, T.; McBrayer, T. R.; Hernandez-Santiago, B. I.; Lostia, S.; Tharnish, P. M.; Ramesh, M.; Chu, C. K.; Jordan, R.; Shi, J. X.; Rachakonda, S.; Watanabe, K. A.; Otto, M. J.; Schinazi, R. F. Antimicrob. Agents Chemother. 2003, 47, 244-254).

CCRF-CEM = test: Cytostatic/cytotoxic MTT assay, CCRF-CEM; conditions: Homo sapiens, read-out: MTT, IC50 CCRF-CEM
Excerpt: (§2) Unless otherwise stated, all cells were purchased from the […] (ATCC). The CCRF-CEM line is derived from T lymphoblastic leukemia, evincing high chemosenzitivity, K562 represent cells from a […] patient sample with bcr-abl translocation, HCT116 is colorectal tumor cell line and its p53 gene knock-down counterpart (HCT116p53−/−, Horizon Discovery, UK) is a model of human cancers with p53 inactivation frequently associated with poor prognosis, A549 cell line is lung adenocarcinoma. The daunorubicin resistant subline of CCRF-CEM cells (CEM-DNR bulk) and paclitaxel resistant subline K562-TAX were selected in our laboratory by cultivation of maternal cell lines in increasing concentrations of daunorubicine or paclitaxel, respectively. The CEM-DNR cells overexpress mrp-1 and mdr-1 genes, while K562-TAX cells overexpress mdr-1 only. Both proteins belong to the family of ABC transporters and are involved in the primary and/or acquired multidrug resistance phenomenon (ref.: Gottesman, M. M.; Fojo, T.; Bates, S. E. Multidrug resistance in cancer: role of ATP-dependent transporters. Nat. Rev. Cancer. 2002, 2, 48-58. (b) Noskova, V.; Dzubak, P.; Kuzmina, G.; Ludkova, A.; Stehlik, D.; Trojanec, R.; Janostakova, A.; Korinkova, G.; Mihal, V.; Hajduch, M. In vitro chemoresistance profile and expression/function of MDR associated proteins in resistant cell lines derived from CCRF-CEM, K562, A549 and MDA MB 231 parental cells. Neoplasma 2002, 49, 418-425). Non-malignant MRC-5 and BJ cells, derived from normal human fibroblasts, were used as controls. The cells were maintained in Nunc/Corning 80 cm^2 plastic tissue culture flasks and cultured in cell culture medium (DMEM/RPMI 1640 with 5 g/L glucose, 2 mM glutamine, 100 U/mL penicillin, 100 µg/mL streptomycin, 10% fetal calf serum, and NaHCO3). Cell suspensions were prepared and diluted according to the particular cell type and the expected target cell density (25,000-30,000 cells/well based on cell growth characteristics). Cells were added by pipette (80 L) into 96-well microtiter plates. Inoculates were allowed a pre-incubation period of 24 h at 37° C. and 5% CO2 for stabilization. Four-fold dilutions, in 20-L aliquots, of the intended test concentration were added to the microtiter plate walls at time zero. All test compound concentrations were examined in duplicate. Incubation of the cells with the test compounds lasted for 72 h at 37° C., in a 5% CO2 atmosphere at 100% humidity. At the end of the incubation period, the cells were assayed using MTT. Aliquots (10 L) of the MTT stock solution (5 mg/ml) were pipetted into each well and incubated for another 1-4 h. After this incubation period the formazan produced was dissolved by addition of 100 µL/well of 10% aq SDS (pH 5.5), followed by a further incubation at 37° C. overnight. The optical density was measured at 540 nm. The IC50 value, the drug concentration inhibiting the cell growth by 50%, was calculated from appropriate dose-response curves.
(§3) In vitro cytotoxic/cytostatic activity final nucleosides 1-5 was initially evaluated against […] cell lines derived from human solid tumors including lung (A549 cells) and colon (HCT116 and HCT116p53−/−) carcinomas, as well as leukemia cell lines (CCRF-CEM, CEM-DNR, K562 and K562-TAX) and, for comparison, non-malignant BJ and MRC-5 fibroblasts. Concentrations inhibiting the cell growth by 50% (IC50) were determined using a quantitative metabolic staining with 3-(4,5-dimethylthiazol-2-yl)-2,5-diphenyltetrazolium bromide (MTT) (ref.: Denizot, F.; Lang, R. Rapid colorimetric assay for cell growth and survival: Modifications to the tetrazolium dye procedure giving improved sensitivity and reliability. J. Immunol. Meth. 1986, 89, 271-277) following a 3-day treatment.

[2] = tested on: Huh-7 cells harboring replicon 1B; test: Cytotoxicity in replicon 1B cells; conditions: HCV subtype 1B replicon
Protocol: as §1

[3] = tested on: HCV subtype 2A replicon in Huh-7 cells; test: HCV sub-genomic reporter replicon assay, subtype 2A; conditions: Hepatitis C virus
Protocol: as §1

[4] = tested on: Huh-7 cells harboring replicon 2A; test: Cytotoxicity in replicon 2A cells; conditions: HCV subtype 2A replicon
Protocol: as §1

MRC-5 = test: Cytostatic/cytotoxic MTT assay, MRC-5 fibroblasts; conditions: Homo sapiens, read-out: MTT, IC50 MRC-5
Excerpt: as §2, §3

A549 = test: Cytostatic/cytotoxic MTT assay, A549; conditions: Homo sapiens, read-out: MTT, IC50 A549
Excerpt: as §2, §3

[5] = Huh-7 cells, HCV subtype 1B replicon, read-out: Replicon 1B EC50
[6] = Huh-7 cells, HCV subtype 2A replicon, read-out: Replicon 2A EC50
[7] = MRC5, non-malignant fibroblasts, 72 h
[8] = Huh-7, read-out: Replicon 1B EC50
[9] = Huh-7, read-out: Replicon 2A EC50

Row | SMILES | pEC50 [1, 5] | pIC50 (CCRF-CEM; 72 h incubation) | CC50 [2] [µM] | pEC50 [3, 6] | CC50 [4] [µM] | pIC50 (MRC-5; [7]) | pIC50 (A549; A549, 72 h incubation) | pEC50 [1, 8] | pIC50 (CCRF-CEM; 72 h) | pEC50 [3, 9] | pIC50 (MRC-5; MRC5, 72 h) | pIC50 (A549; A549, 72 h)
1 | CNc1ncnc2c1c(-c1cc3ccccc3o1)cn2[C@@H]1O[C@H](CO)[C@@H](O)[C@H]1O [Compound 3f, 5-(Benzofuran-2-yl)-4-methylamino-7-(β-D-ribofuranosyl)-7H-pyrrolo[2,3-d]pyrimidine] | 5.69 | < 4.70 | > 44 | 4.87 | > 44 | 4.12 | < 4.70 | – | – | – | – | –
2 | CSc1ncnc2c1c(-c1ccco1)cn2[C@@H]1O[C@H](CO)[C@@H](O)[C@H]1O [Compound 2a, 5-(Furan-2-yl)-4-methylsulfanyl-7-(β-D-ribofuranosyl)-7H-pyrrolo[2,3-d]pyrimidine] | 7.15 | 7.30 | 38.6 | 7.30 | > 44 | 4.13 | 7.30 | – | – | – | – | –
3 | CSc1ncnc2c1c(-c1ccsc1)cn2[C@@H]1O[C@H](CO)[C@@H](O)[C@H]1O [Compound 2d, 4-Methylsulfanyl-7-(β-D-ribofuranosyl)-5-(thiophen-3-yl)-7H-pyrrolo[2,3-d]pyrimidine] | 4.96 | < 4.70 | > 44 | < 4.36 | > 44 | < 4.00 | < 4.70 | – | – | – | – | –
4 | CN(C)c1ncnc2c1ccn2[C@@H]1O[C@H](CO)[C@@H](O)[C@H]1O [RC4, reference compound] | 6.57 | 6.20 | > 44 | 6.01 | > 44 | 4.24 | < 4.70 | – | – | – | – | –
5 | Cc1ncnc2c1ccn2[C@@H]1O[C@H](CO)[C@@H](O)[C@H]1O [RC5, 4-Methyl-7-(β-D-ribofuranosyl)-7H-pyrrolo[2,3-d]pyrimidine, reference compound] | – | – | 0.23 | – | 0.12 | – | – | 7.70 | 8.00 | 7.70 | 7.05 | 7.52
6 | CNc1ncnc2c1c(-c1ccco1)cn2[C@@H]1O[C@H](CO)[C@@H](O)[C@H]1O [Compound 3a, 5-(Furan-2-yl)-4-methylamino-7-(β-D-ribofuranosyl)-7H-pyrrolo[2,3-d]pyrimidine] | 7.22 | 6.74 | > 44 | 6.85 | > 44 | 4.04 | 5.59 | – | – | – | – | –
7 | CN(C)c1ncnc2c1c(-c1ccsc1)cn2[C@@H]1O[C@H](CO)[C@@H](O)[C@H]1O [Compound 4d, 4-Dimethylamino-7-(β-D-ribofuranosyl)-5-(thiophen-3-yl)-7H-pyrrolo[2,3-d]pyrimidine] | 4.42 | 5.46 | > 44 | < 4.36 | > 44 | < 4.00 | < 4.70 | – | – | – | – | –
8 | Cc1ncnc2c1c(-c1ccco1)cn2[C@@H]1O[C@H](CO)[C@@H](O)[C@H]1O [Compound 5a, 5-(Furan-2-yl)-4-methyl-7-(β-D-ribofuranosyl)-7H-pyrrolo[2,3-d]pyrimidine] | 7.15 | 7.40 | 6.62 | 6.82 | 43.6 | 6.21 | 6.96 | – | – | – | – | –
9 | C#Cc1cn([C@@H]2O[C@H](CO)[C@@H](O)[C@H]2O)c2ncnc(NC)c12 [Compound 3g, 5-Ethynyl-4-methylamino-7-(β-D-ribofuranosyl)-7H-pyrrolo[2,3-d]pyrimidine] | 6.46 | < 4.70 | > 44 | < 4.36 | > 44 | < 4.00 | < 4.70 | – | – | – | – | –
10 | CSc1ncnc2c1ccn2[C@@H]1O[C@H](CO)[C@@H](O)[C@H]1O [RC2, reference compound] | – | – | > 44 | – | > 44 | – | – | 4.52 | < 4.70 | < 4.36 | < 4.00 | < 4.70
11 | CN(C)c1ncnc2c1c(-c1ccoc1)cn2[C@@H]1O[C@H](CO)[C@@H](O)[C@H]1O [Compound 4b, 4-Dimethylamino-5-(furan-3-yl)-7-(β-D-ribofuranosyl)-7H-pyrrolo[2,3-d]pyrimidine] | 5.10 | 4.88 | > 44 | < 4.36 | > 44 | < 4.00 | < 4.70 | – | – | – | – | –
12 | Cc1ncnc2c1c(-c1ccoc1)cn2[C@@H]1O[C@H](CO)[C@@H](O)[C@H]1O [Compound 5b, 5-(Furan-3-yl)-4-methyl-7-(β-D-ribofuranosyl)-7H-pyrrolo[2,3-d]pyrimidine] | 5.35 | < 4.70 | > 44 | < 4.36 | > 44 | 4.01 | < 4.70 | – | – | – | – | –
13 | CN(C)c1ncnc2c1c(-c1cccs1)cn2[C@@H]1O[C@H](CO)[C@@H](O)[C@H]1O [Compound 4c, 4-Dimethylamino-7-(β-D-ribofuranosyl)-5-(thiophen-2-yl)-7H-pyrrolo[2,3-d]pyrimidine] | 4.78 | < 4.70 | > 44 | < 4.36 | > 44 | < 4.00 | < 4.70 | – | – | – | – | –
14 | CSc1ncnc2c1c(-c1cc3ccccc3o1)cn2[C@@H]1O[C@H](CO)[C@@H](O)[C@H]1O [Compound 2f, 5-(Benzofuran-2-yl)-4-methylsulfanyl-7-(β-D-ribofuranosyl)-7H-pyrrolo[2,3-d]pyrimidine] | 5.10 | < 4.70 | > 44 | 4.53 | > 44 | 4.15 | < 4.70 | – | – | – | – | –
15 | COc1ncnc2c1c(-c1cccs1)cn2[C@@H]1O[C@H](CO)[C@@H](O)[C@H]1O [Compound 1c, 4-Methoxy-7-(β-D-ribofuranosyl)-5-(thiophen-2-yl)-7H-pyrrolo[2,3-d]pyrimidine] | 5.97 | 7.05 | > 44 | < 4.36 | > 44 | 4.36 | 5.31 | – | – | – | – | –
16 | CSc1ncnc2c1c(-c1ccccc1)cn2[C@@H]1O[C@H](CO)[C@@H](O)[C@H]1O [Compound 2e, 4-Methylsulfanyl-5-phenyl-7-(β-D-ribofuranosyl)-7H-pyrrolo[2,3-d]pyrimidine] | 4.63 | < 4.70 | > 44 | < 4.36 | > 44 | < 4.00 | < 4.70 | – | – | – | – | –
